# Test results reported in patent US11464789B2, “Aminosterol compositions and methods of using the same for treating schizophrenia” (Enterin, Inc., priority 2018, dated 2022).
# “And” between values parts separate entries of the source, which are not always exact repeats. Equal entries are not always repeated. “Also recorded” adds a separate entry of the source. Where two headings read alike, the source gives them in different places.
# How the values were obtained:
# [1] = tested on: patients with PD and constipation; test: Effect on bowel function, Phase 2 trial (Stage 1 single dose, Stage 2 daily dosing); type: in vivo, human
# Protocol: Overview: The subjects of the trial all had PD and experienced constipation, which is a characteristic of PD. The primary objectives of the trial involving patients with PD and constipation were to evaluate the safety and pharmacokinetics of oral squalamine (ENT-01) and to identify the dose required to improve bowel function, which was used as a clinical endpoint.
# ENT-01 is the phosphate salt of squalamine. For this study it has been formulated as a small 25 mg coated tablet. Dosing ranged from 25 mg to 250 mg, with dosages greater than 25 mg requiring multiple pills (e.g., 50 mg=two 25 mg pills). Dosing instructions=take 60 mins before breakfast with 8 oz. water. The dose was taken by each patient upon awakening on an empty stomach along with 8 oz. of water simultaneously to dopamine. The subject was not allowed to ingest any food for at least 60 minutes after study medication. The compound is highly charged and will adsorb to foodstuffs, so it was administered prior to feeding.
# Following successful screening, all subjects underwent a 14-day run-in period where the degree of constipation was assessed through a validated daily log (Zinsmeister et al. 2013) establishing baseline CSBMs/week. Subjects with an average of <3 CSBMs/week proceeded to dosing.
# (§1) Tolerability limits included diarrhea or vomiting.
# (§2) In Stage 2, 34 patients were evaluated.
# The primary efficacy outcome variable was whether or not a subject was a “success” or “failure”. This is an endpoint based on subject diary entries for the “fixed dose” period prior to the endpoint assessment defined as average complete stool frequency increase by 1 or more over baseline, or 3 or more complete spontaneous stools/week. The subject was deemed a “success” if s/he met one or more of the criteria listed above, otherwise the subject was deemed a “failure”. The primary analysis was based on all subjects with a baseline assessment and an assessment at the end of the “fixed-dose” period and was a comparison of the proportion of successes with 0.10 (the null hypothesis corresponding to no treatment effect).
# [2] = tested on: patients with PD and constipation; test: Safety and adverse event profile, Phase 2 trial; type: in vivo, human
# Protocol: as §1, §2
# [3] = mice, prior studies; cited from earlier work
# [4] = tested on: patients with PD and constipation; test: CNS symptoms in Stage 2 (UPDRS, MMSE, PDHQ, BDI-II, hallucinations); type: in vivo, human; conditions: 6 patients with hallucinations (5) or delusions (1) at baseline
# From the text: (8) Beck Depression Inventory (BDI-II);
# (9) Unified Parkinson's Disease Rating Scale (UPDRS), which consists of 42 items in four subscales (Part I=Non-Motor Aspects of Experiences of Daily Living (nM-EDL) (1.1 cognitive impairment, 1.2 hallucinations and psychosis, 1.3 depressed mood, Part II=Motor Aspects of Experiences of Daily Living (M-EDL), Part III=Motor Examination, and Part IV=Motor Complications;
# (10) Mini Mental State Examination (MMSE);
# (12) The University of Miami Parkinson's Disease Hallucinations Questionnaire (UM-PDHQ); […]
# Assessments were made at baseline and at the end of the fixed dose and washout periods. Circadian system status was evaluated by continuously monitoring wrist skin temperature (Thermochron iButton DS1921H; Maxim, Dallas) following published procedures (Sarabia et al. 2008). […]
# [5] = Pharmacokinetics of orally administered squalamine (ENT-01), Phase 2 trial; type: in vivo, human; conditions: for oral bio-availability (estimated): based on pharmacokinetic behavior of intravenously administered squalamine in prior clinical studies; for systemic absorption following oral administration: this study, PD patients
# Protocol: PK data were collected on the 10 patients enrolled in Stage 1 and 10 patients enrolled in Stage 2 to determine the extent of systemic absorption. In Stage 1, PK data were obtained at each visit, pre-medication, at 1, 2, 4, 8 and 24 hours (Table 10). In Stage 2, PK was measured on days 1 and 6 of the randomization period pre-medication, at 1, 2, 4 and 8 hours (Table 11).
# The mean Cmax, Tmax and T1/2 and AUC of the squalamine ion following squalamine (ENT-01) oral dosing for Stage 1 patients. The PK analyses are only approximate, as the lower limit of the validated concentration range was 10 ng/ml; most of the measured concentrations fell below that value. The mean Cmax, Tmax and T1/2 and AUC of the squalamine ion following squalamine (ENT-01) oral dosing for Stage 2 patients. The PK analyses are only approximate, as the lower limit of the validated concentration range was 0.5 ng/ml.
# [6] = tested on: patients with PD and constipation; test: Circadian rhythm of wrist skin temperature; type: in vivo, human; conditions: for effect on circadian rhythm of skin temperature: oral administration, 12 patients with evaluable data
# Protocol: (6) I-Button Temperature Assessment. The I-Button is a small, rugged self-sufficient system that measures temperature and records the results in a protected memory section. The Thermochron I-Button DS1921H (Maxim Integrated, Dallas, Tex.) was used for skin temperature measurement. I-Buttons were programmed to sample every 10 mins., and attached to a double-sided cotton sport wrist band using Velcro, with the sensor face of the I-Button placed over the inside of the wrist, on the radial artery of the dominant hand. Subjects removed and replaced the data logger when necessary (i.e., to have a bath or shower). The value of skin temperature assessment in sleep research is that the endogenous skin warming resulting from increased skin blood flow is functionally linked to sleep propensity. From the collected data, the mesor, amplitude, acrophase (time of peak temperature), Rayleight test (an index of interdaily stability), mean waveforms are calculated);
# Assessments were made at baseline and at the end of the fixed dose and washout periods. Circadian system status was evaluated by continuously monitoring wrist skin temperature (Thermochron iButton DS1921H; Maxim, Dallas) following published procedures (Sarabia et al. 2008).
# Circadian rhythm of skin temperature was evaluable in 12 patients (i.e., those who had recordings that extended from baseline through washout). Circadian system functionality was evaluated by continuously monitoring wrist skin temperature using a temperature sensor (Thermochron iButton DS1921H; Maxim, Dallas, Tex.) (Sarabia et al. 2008). A nonparametric analysis was performed for each participant to characterize DST as previously described (Sarabia et al. 2008; Ortiz-Tudela et al. 2010).
# Briefly, this analysis includes the following parameters: (i) the inter-daily stability (the constancy of 24-hour rhythmic pattern over days, IS); (ii) intra-daily variability (rhythm fragmentation, IV); (iii) average of 10-minute intervals for the 10 hours with the minimum temperature (L10); (iv) average of 10-minute intervals for the 5 hours with the maximum temperature (M5) and the relative amplitude (RA), which was determined by the difference between M5 and L10, divided by the sum of both. Finally, the Circadian Function Index (CFI) was calculated by integrating IS, IV, and RA. Consequently, CFI is a global measure that oscillates between 0 for the absence of circadian rhythmicity and 1 for a robust circadian rhythm (Ortiz-Tudela et al. 2010).
# [7] = tested on: patients with PD and constipation; test: Sleep diary (total sleep time, REM-behavior disorder); type: in vivo, human; conditions: beyond 125 mg
# Protocol: FIG. 3 is a chart of total sleep time in relation to squalamine dose. Total sleep time was obtained from the sleep diary by subtracting awake time during the night from total time spent in bed. Total sleep time per night was logged for each patient at baseline, each dosing period and at washout, and the means were determined. The light grey bar represents the baseline value for each cohort at a given dose level and the dark grey bar represents the value for the same cohort at the stated dose of squalamine (ENT-01). The number of patients represented at each value are: Baseline, 33; 75 mg, 21; 100 mg, 28; 125 mg, 18; 150 mg, 15; 175 mg, 12; 200 mg, 7; 225 mg, 3; 250 mg, 2; washout, 33. P values were as follows: 75 mg, p=0.4; 100 mg, p=0.1; 125 mg, p=0.3; 150 mg, p=0.07; 175 mg, p=0.03; 200 mg, p=0.3; 225 mg, p=0.5; 250 mg, p=0.3; wash-out, p=0.04 (paired t test).
# (5) Sleep Diary (participants completed a sleep diary on a daily basis throughout the study. The diaries included time into bed and estimated time to sleep as well as wake time and duration during the night); […]
# [8] = rats, prior studies; cited from earlier work
# [9] = dogs, prior studies; cited from earlier work
# [10] = prior studies; systemic blood levels one thousand-fold greater than oral; cited from earlier work
# [11] = tested on: IPANs (intrinsic primary afferent neuron); conditions: isolated bowel segment, PD mouse model; increasing frequency of propulsive peristaltic contractions; cited from earlier work
# mouse models of PD = conditions: orally administered, mice with constipation due to overexpression of human αS (West et al, manuscript in preparation); cited from earlier work
# [12] = Stage 2, fixed dose, n = 34, weekly average
# [13] = Stage 2, fixed dose, n = 34, weekly average, listed as aminosterol
structure (smiles),measurement,setting,value
"CC(C)[C@@H](CC[C@@H](C)[C@H]1CC[C@H]2[C@@H]3[C@H](O)C[C@H]4C[C@@H](NCCCNCCCCN)CC[C@]4(C)[C@H]3CC[C@]12C)OS(=O)(=O)O (single isomer, unassigned) [squalamine (ENT-01), squalamine]","CSBM (mean, SD)",[1]; [12],3.8 CSBM/week and 3.8 (2.4) CSBM/week
same,"Suppository use / rescue medication (mean, SD)",[1]; [12],0.3 /week and 0.3 (0.67) /week
same,"CSBM (mean, SD)",[1]; [13],3.8 CSBM/week
same,"SBM (mean, SD)",[1]; [13],4.5
same,"Suppository use / rescue medication (mean, SD)",[1]; [13],0.3 /week
same,prokinetic dose (mean),[1]; patients with baseline ≥1 CSBM/week,120 mg
same,"Diarrhea, Mild",[2]; Stage 2 (34 dosed),"12 (35)^ n, %"
same,"Difficulty falling asleep, Mild",[2]; Stage 2 (34 dosed),"1 (3)^ n, %"
same,"Eye infection, Mild",[2]; Stage 2 (34 dosed),"1 (3)^ n, %"
same,"Flatulence, Mild",[2]; Stage 2 (34 dosed),"1 (3)^ n, %"
same,"Nausea, Mild",[2]; Stage 2 (34 dosed),"18 (52)^ n, %"
same,"Urinary retention, Mild",[2]; Stage 2 (34 dosed),"1 (3)^ n, %"
same,"Urinary tract infection, Mild",[2]; Stage 2 (34 dosed),"1 (3)^ n, %"
same,"Worsening hemorrhoid, Mild",[2]; Stage 2 (34 dosed),"1 (3)^ n, %"
same,patients with worsening of hemorrhoids,"[2]; all dosed, 1/44",2.2%
same,patients with worsening of acid reflux,"[2]; all dosed, 2/44",4.5%
same,patients with flatulence,"[2]; all dosed, 3/44",6.8%
same,patients with vomiting,"[2]; all dosed, 3/44",6.8%
same,patients with dizziness,"[2]; all dosed, 8/44",18%
same,patients with abdominal pain,"[2]; all dosed, 11/44",32%
same,Serious adverse event (SAE),"[2]; withdrawal period, considered unrelated to study medication",One patient had a lower GI bleed
same,systemic absorption following oral administration,[3],negligible
same,patients in whom hallucinations and delusions improved or disappeared during treatment,[4],improved or disappeared during treatment in five
same,patients in whom hallucinations and delusions improved or disappeared during treatment,[4]; listed as aminosterol,improved or disappeared during treatment in five
same,oral bio-availability (estimated),[5],less than 0.3%
same,oral bio-availability (estimated),[5]; listed as aminosterol,< 0.3%
same,systemic absorption following oral administration,[5]; listed as aminosterol,negligible
same,effect on circadian rhythm of skin temperature,[6],significant positive impact; also recorded: improved all markers of healthy circadian function
same,effect on circadian rhythm of skin temperature,[6]; listed as Aminosterol,improved all markers of healthy circadian function
same,improvement of CFI during wash-out,"[6]; wash-out period, p=0.004",persisted
same,improvement of IS during wash-out,"[6]; wash-out period, p=0.008",persisted
same,total sleep time vs baseline,[7],consistently higher than baseline
same,systemic absorption following oral administration,[8],negligible
same,systemic absorption following oral administration,[9],negligible
CC(C)[C@@H](CC[C@@H](C)[C@H]1CC[C@H]2[C@@H]3[C@H](O)C[C@H]4C[C@@H](NCCCNCCCCN)CC[C@]4(C)[C@H]3CC[C@]12C)OS(=O)(=O)O [squalamine],gastrointestinal motility after intravenous administration,[10],not associated with increased gastrointestinal motility
same,systemic absorption following oral administration,[5],not significantly absorbed into the systemic circulation
same,effect on IPANs of the ENS,[11],excitation of IPANs
same,gastro-intestinal motility,mouse models of PD,stimulates gastro-intestinal motility
